According to paper PMC5874699, “Antimicrobial and Antibiofilm Activity of UP-5, an Ultrashort Antimicrobial Peptide Designed Using Only Arginine and Biphenylalanine” (Pharmaceuticals, 2018):

Tests used:
[1] = test system: Staphylococcus aureus (ATCC 29213); type: cell-based; settings: S. aureus ATCC 29213, antibiotic alone, triplicate; for Antibiotics MBC Alone: 99.9% killing; for Antibiotics MIC Alone: microbroth dilution
Description: (§1) All bacterial susceptibility, biofilm, and synergistic assays of peptides, antibiotics, and peptides-antibiotics combinations used bacterial strains obtained from the American Type Tissue Culture Collection (ATCC, Manassas, VA, USA) that states the mechanism of resistance for each strain according to ATCC number. Gram-positive bacteria were represented by five strains, the wild type strain Staphylococcus aureus (ATCC 29213) and methicillin-resistant S. aureus (MRSA) (ATCC 33591) in addition to clinically isolated strains S. aureus (ATCC BAA-41& 43300) and Enterococcus faecalis (ATCC BAA-2316). The Gram-negative bacteria strains were represented by wild type strains of Escherichia coli (ATCC 25922 & 35218) and Pseudomonas aeruginosa (ATCC 27853) as well as the clinically isolated multidrug-resistant strain P. aeruginosa (ATCC BAA-2114). The bacteria were cultured onto Muller Hinton Agar (Scharlab, S.L, Barcelona, Spain). Mueller Hinton Broth (Oxoid Ltd., Basingstoke, UK) was used to prepare all bacterial suspensions and to dissolve the peptides and the antibiotics. The assay was performed in sterile 96-well polypropylene microtiter plates.
(§2) All bacterial susceptibility assays were conducted according to the microbroth dilution method outlined by the Clinical and Laboratory Standards Institute (CLSI) guidelines.
(§3) Briefly, pre-sterilized MHB was used as a growth medium for organisms obtained from stock media with glycerol. Bacterial cells were grown overnight in MHB and diluted to 10^6 CFU/mL in the same medium prior to use. For peptide, serial concentrations in the range of 0.5–100 μM were prepared. Then, 50 μL of each peptide concentration and 50 µL of diluted bacterial suspension were added to each well of a 96-well microtiter plate. Peptide solutions were prepared by dissolving the peptide in sterile MHB. Then, the plates were incubated overnight in a humidified atmosphere, and at 37 °C. Bacterial growth was determined by measuring the optical density (OD) at λ = 600 nm using an ELISA plate reader (Epoch, BioTek, Winooski, VT, USA) and the minimum inhibitory concentration (MIC) was determined.
(§4) As described in the previous section, the MIC and MBC values of antibiotics employed in this study were determined against subjected bacterial strains via preparing different concentrations of each antibiotic.

S. aureus (ATCC 43300) [2] = type: cell-based, Staphylococcus aureus; settings: S. aureus ATCC 43300, antibiotic alone, triplicate; for Antibiotics MBC Alone: 99.9% killing; for Antibiotics MIC Alone: microbroth dilution
Description: as §1, §2, §3, §4

S. aureus (ATCC BAA-41) [3] = type: cell-based, Staphylococcus aureus; settings: S. aureus ATCC BAA-41, antibiotic alone, triplicate; for Antibiotics MBC Alone: 99.9% killing; for Antibiotics MIC Alone: microbroth dilution
Description: as §1, §2, §3, §4

[4] = test system: methicillin-resistant S. aureus (MRSA) (ATCC 33591); experiment: MIC/MBC, microbroth dilution (CLSI); type: cell-based, Staphylococcus aureus; settings: S. aureus ATCC 33591, antibiotic alone, triplicate; for Antibiotics MBC Alone: 99.9% killing; for Antibiotics MIC Alone: microbroth dilution
Description: as §1, §2, §3, §4

[5] = test system: P. aeruginosa (ATCC BAA-2114); type: cell-based, Pseudomonas aeruginosa; settings: P. auroginosa ATCC BAA-2114, antibiotic alone, triplicate; for Antibiotics MBC Alone: 99.9% killing; for Antibiotics MIC Alone: microbroth dilution
Description: as §1, §2, §3, §4

S. aureus (ATCC 29213) = experiment: Broth microdilution checkerboard, UP-5 with antibiotics; type: cell-based, Staphylococcus aureus; settings: for Effect of the combination according to FIC value: S. aureus (ATCC 29213); for Antibiotics MIC in Combination: antibiotic in combination with UP-5, checkerboard, triplicate; for Antibiotics Reduction in MIC (%): antibiotic MIC in combination with UP-5 compared to MIC alone
Description: as §1
(§5) According to the broth microdilution checkerboard technique, the MIC and MBC values of peptide-antibiotics combinations against wild type and multidrug resistant bacterial strains were determined. Serial concentrations of peptide and each antibiotic were prepared in the range of 0.005–100 μM. In each well of a 96-well microtiter plate, 25 μL of each peptide concentration were added to 25 μL of each antibiotic concentration which is followed by adding 50 μL of diluted bacterial suspension (10^6 CFU/mL) to each well. The prepared concentrations of peptide and each antibiotic were arranged into rows and columns, respectively, in a 96-well microtiter plate according the checkerboard technique. Then as described previously (see Section 2.4.1), the procedure was followed. All MIC and MBC determinations of all assays were made in triplicate.
(§6) The fractional inhibitory concentration (FIC) is defined as the inhibitory concentration of the antimicrobial combination divided by that of the single antimicrobial component. To calculate FIC index for peptide-antibiotic combinations, the following equation was used:(1) FIC index=MIC of drug X in combination/MIC of drug X alone+MIC of drug Y in combination/MIC of drug Y alone
(§7) The FIC indices were interpreted as follows: ≤0.5: synergistic activity, 0.5–1: additive activity, 1–4 indifferent, >4: antagonism. Interpretation and assessment of the FIC indices were performed according to the broth microdilution checkerboard technique.

S. aureus (ATCC 33591) = experiment: as above; type: cell-based, Staphylococcus aureus; settings: for Effect of the combination according to FIC value: S. aureus (ATCC 33591); for Antibiotics Reduction in MIC (%): antibiotic MIC in combination with UP-5 compared to MIC alone; for Antibiotics MIC in Combination: antibiotic in combination with UP-5, checkerboard, triplicate
Description: as §1, §5, §6, §7

S. aureus (ATCC 43300) [6] = experiment: as above; type: cell-based, Staphylococcus aureus; settings: for Effect of the combination according to FIC value: S. aureus (ATCC 43300); for Antibiotics MIC in Combination: antibiotic in combination with UP-5, checkerboard, triplicate; for Antibiotics Reduction in MIC (%): antibiotic MIC in combination with UP-5 compared to MIC alone
Description: as §1, §5, §6, §7

S. aureus (ATCC BAA-41) [7] = experiment: as above; type: cell-based, Staphylococcus aureus; settings: for Effect of the combination according to FIC value: S. aureus (ATCC BAA-41); for Antibiotics Reduction in MIC (%): antibiotic MIC in combination with UP-5 compared to MIC alone; for Antibiotics MIC in Combination: antibiotic in combination with UP-5, checkerboard, triplicate
Description: as §1, §5, §6, §7

[8] = test system: P. aeruginosa (ATCC BAA-2114); experiment: as above; type: cell-based, Pseudomonas aeruginosa; settings: for Effect of the combination according to FIC value: P. aeruginosa (ATCC 2114 as printed); for Antibiotics Reduction in MIC (%): antibiotic MIC in combination with UP-5 compared to MIC alone; for Antibiotics MIC in Combination: antibiotic in combination with UP-5, checkerboard, triplicate
Description: as §1, §5, §6, §7

Row | SMILES | Antibiotics MBC Alone [1] | Antibiotics MIC Alone [1] | Antibiotics MBC Alone (S. aureus (ATCC 43300) [2]) | Antibiotics MIC Alone (S. aureus (ATCC 43300) [2]) | Antibiotics MBC Alone (S. aureus (ATCC BAA-41) [3]) | Antibiotics MIC Alone (S. aureus (ATCC BAA-41) [3]) | Antibiotics MBC Alone [4] | Antibiotics MIC Alone [4] | Antibiotics MBC Alone [5] | Antibiotics MIC Alone [5] | Antibiotics MIC in Combination (S. aureus (ATCC 29213); S. aureus ATCC 29213) | Effect of the combination according to FIC value (S. aureus (ATCC 33591); antibiotic-UP-5 combination) | Antibiotics Reduction in MIC (%) (S. aureus (ATCC 33591); S. aureus ATCC 33591) | Antibiotics MIC in Combination (S. aureus (ATCC 33591); S. aureus ATCC 33591) | Effect of the combination according to FIC value (S. aureus (ATCC 43300) [6]; antibiotic-UP-5 combination) | Antibiotics MIC in Combination (S. aureus (ATCC 43300) [6]; S. aureus ATCC 43300) | Antibiotics Reduction in MIC (%) (S. aureus (ATCC BAA-41) [7]; S. aureus ATCC BAA-41) | Antibiotics MIC in Combination (S. aureus (ATCC BAA-41) [7]; S. aureus ATCC BAA-41) | Effect of the combination according to FIC value ([8]; antibiotic-UP-5 combination) | Antibiotics MIC in Combination ([8]; P. auroginosa ATCC BAA-2114) | other results
1 | O=C(N[C@H](CO)[C@H](O)c1ccc([N+](=O)[O-])cc1)C(Cl)Cl [Chloramphenicol, chloramphenicol] | 30 µM | 20 µM | 20 µM | 15 µM | 30 µM | 25 µM | 150 µM | 130 µM | 325 µM | 200 µM | 10 µM | additive (0.5–1: additive activity) | 50% | 65 µM | additive (0.5–1: additive activity) | 7.5 µM | 70% | 7.5 µM | synergistic (≤0.5: synergistic activity) | 12.5 µM | Effect of the combination according to FIC value (S. aureus (ATCC 29213); antibiotic-UP-5 combination): additive (0.5–1: additive activity); FIC Index (S. aureus (ATCC 29213); S. aureus ATCC 29213, antibiotic-UP-5 combination, checkerboard): 0.75; FIC Index (S. aureus (ATCC 33591); S. aureus ATCC 33591, antibiotic-UP-5 combination, checkerboard): 1; FIC Index (S. aureus (ATCC 43300) [6]; S. aureus ATCC 43300, antibiotic-UP-5 combination, checkerboard): 1; Effect of the combination according to FIC value (S. aureus (ATCC BAA-41) [7]; antibiotic-UP-5 combination): additive (0.5–1: additive activity); FIC Index (S. aureus (ATCC BAA-41) [7]; S. aureus ATCC BAA-41, antibiotic-UP-5 combination, checkerboard): 0.8; Antibiotics Reduction in MIC (%) ([8]; P. auroginosa ATCC BAA-2114): 93.7%; FIC Index ([8]; P. auroginosa ATCC BAA-2114, antibiotic-UP-5 combination, checkerboard): 0.24
2 | CO[C@H]1/C=C/O[C@@]2(C)Oc3c(C)c(O)c4c(O)c(c(/C=N/N5CCN(C)CC5)c(O)c4c3C2=O)NC(=O)/C(C)=C\C=C\[C@H](C)[C@H](O)[C@@H](C)[C@@H](O)[C@@H](C)[C@H](OC(C)=O)[C@@H]1C [Rifampicin, rifampicin] | 0.025 µM | 0.025 µM | 1 µM | 1 µM | 0.005 µM | 0.005 µM | 0.04 µM | 0.04 µM | 50 µM | 50 µM | 0.025 µM | synergistic (≤0.5: synergistic activity) | 87.5% | 0.005 µM | synergistic (≤0.5: synergistic activity) | – | 60% | 0.002 µM | synergistic (≤0.5: synergistic activity) | 0.25 µM | Effect of the combination according to FIC value (S. aureus (ATCC 29213); antibiotic-UP-5 combination): indifferent (1–4 indifferent); Antibiotics Reduction in MIC (%) (S. aureus (ATCC 29213); S. aureus ATCC 29213): <50%; Antibiotics Reduction in MIC (%) (S. aureus (ATCC 43300) [6]; S. aureus ATCC 43300): 87.5%; Effect of the combination according to FIC value (S. aureus (ATCC BAA-41) [7]; antibiotic-UP-5 combination): indifferent (1–4 indifferent)
3 | CC[C@H]1OC(=O)[C@H](C)[C@@H](O[C@H]2C[C@@](C)(OC)[C@@H](O)[C@H](C)O2)[C@H](C)[C@@H](O[C@@H]2O[C@H](C)C[C@H](N(C)C)[C@H]2O)[C@](C)(O)C[C@@H](C)C(=O)[C@H](C)[C@@H](O)[C@]1(C)O [Erythromycin, erythromycin] | 1.5 µM | 0.5 µM | 150 µM | 100 µM | 400 µM | 350 µM | 10 µM | 8 µM | 150 µM | – | 0.5 µM | – | <50% | 8 µM | – | 100 µM | 64.3% | – | additive (0.5–1: additive activity) | 50 µM | Antibiotics Reduction in MIC (%) (S. aureus (ATCC 29213); S. aureus ATCC 29213): <50%; Antibiotics Reduction in MIC (%) (S. aureus (ATCC 43300) [6]; S. aureus ATCC 43300): <50%; Antibiotics Reduction in MIC (%) ([8]; P. auroginosa ATCC BAA-2114): 60%
4 | CC1(C)S[C@@H]2[C@H](NC(=O)[C@H](N)c3ccccc3)C(=O)N2[C@H]1C(=O)O [Ampicillin, ampicillin] | 2.5 µM | 2.5 µM | 20 µM | 20 µM | 40 µM | 40 µM | 85 µM | 85 µM | > 500 µM | > 500 µM | 2.5 µM | synergistic (≤0.5: synergistic activity) | 85.3% | – | additive (0.5–1: additive activity) | 2.5 µM | – | 20 µM | additive (0.5–1: additive activity) | 250 µM | Antibiotics Reduction in MIC (%) (S. aureus (ATCC 29213); S. aureus ATCC 29213): <50%; Antibiotics Reduction in MIC (%) ([8]; P. auroginosa ATCC BAA-2114): >50%
